Molecular target: T1, exo− E. coli Polymerase I, Klenow fragment (Escherichia coli, UniProt P00582, D355A/E357A)
T1 construct: 12.5 U exo^− E. coli Polymerase I, Klenow fragment (Epicentre); purchased Epicentre
Test: Primer extension: incorporation of 3′ thiol-nucleoside triphosphate into a growing DNA strand by DNA polymerase
Assay type: biochemical
Method: DNA synthesis was performed on a single-stranded DNA template (5′-TTTTTTCTAAGGTAGCGACTGTCCTATACAGACTGACAAAAAAAGAGAATGAGGAACCCGGGGCAG-3′) (SEQ ID NO:1), which was labeled at its 5′ end with a dual biotin tag and was attached to a magnetic bead (FIG. 3B). Synthesis was primed using a primer (5′-CTGCCCCGGGTTCCTCATTCTCT-3′) (SEQ ID NO:2), which was complementary to a portion of the DNA template. The primer was labeled with Cy5 at its 5′ end. The DNA template contained 5 adenine nucleotides immediately downstream of the primer sequence. […]

T1 sequence (P00582 324-928 D355A/E357A): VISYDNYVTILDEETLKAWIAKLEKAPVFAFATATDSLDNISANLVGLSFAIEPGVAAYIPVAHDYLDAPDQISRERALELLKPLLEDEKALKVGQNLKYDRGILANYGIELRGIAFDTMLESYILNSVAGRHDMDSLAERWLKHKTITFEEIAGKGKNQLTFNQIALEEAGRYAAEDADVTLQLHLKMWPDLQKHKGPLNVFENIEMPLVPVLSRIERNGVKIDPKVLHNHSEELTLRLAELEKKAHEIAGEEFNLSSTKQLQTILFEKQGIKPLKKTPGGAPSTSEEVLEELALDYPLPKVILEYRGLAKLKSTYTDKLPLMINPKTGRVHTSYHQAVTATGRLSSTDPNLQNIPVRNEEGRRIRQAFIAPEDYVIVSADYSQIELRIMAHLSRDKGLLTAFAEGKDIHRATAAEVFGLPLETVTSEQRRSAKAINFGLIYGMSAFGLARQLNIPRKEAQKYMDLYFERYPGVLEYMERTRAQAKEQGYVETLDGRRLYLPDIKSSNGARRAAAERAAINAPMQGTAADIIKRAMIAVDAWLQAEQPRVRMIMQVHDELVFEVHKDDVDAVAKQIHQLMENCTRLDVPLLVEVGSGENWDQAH

SMILES: CSS[C@H]1C[C@H](n2cc(C)c(=O)[nH]c2=O)O[C@@H]1CO [3′-deoxy-dithiomethyl thymidine]
- modified thymidine residues in the vast majority of reaction products (higher concentration 1.0 mM (FIG. 3E)): 5
- number of 3′-deoxy-dithiomethyl thymidine nucleotides incorporated into the DNA product (template with 5 adenines downstream of primer, 37° C., 4.0 min): Up to five

— patent US20100298551A1, “Methods Of Producing And Sequencing Modified Polynucleotides” (priority 2005, published 2010)
